Read-outs that look alike come from different tables or passages of the source.

Data on one substance can be found in paper PMC3563715 (Molecular pharmaceutics, 2013).

For series [1] the following is noted: cited from earlier work.
The test system of series [2] is collagen induced arthritis (CIA). The format is in vivo, DBA/1J mice. As to conditions: single IV dose on day 22, observed to day 58, 6 mice/group.
For series [3], the system named is systemic arterial pressure. As to the kind of experiment: Systemic arterial pressure. The class given is in vivo, CIA mice. As to conditions: single IV injection, regardless of dose.
Series [4] has as its system collagen induced arthritis (CIA). As to the kind of experiment: Efficacy against collagen induced arthritis, subcutaneous treatment. The class given is in vivo, DBA/1J mice. As to conditions: 5.0 nmol/animal SC on day 22 and 34; between days 34 and 40.

Consider “Vasoactive intestinal peptide [free VIP]”, for which the in vivo half-life result in series [1] is recorded as “few minutes”. Further, the “paw thickness and clinical arthritis score” value in series [2] (0.5 nmol/animal) and in series [2] (1.0 nmol/animal) was “did not show any therapeutic efficacy” each time. For the same substance, the “time to full recovery of SAP to the norm” value in series [3] is listed as “approximately one hour”. For the same substance, the “duration of disease suppression after cessation of treatment” value in series [4] is on record as “about a week”.
